One substance from patent US6287813A, “Antibiotic-based gene regulation system” (Cistronics Cell Technology GmbH, priority 1999, dated 2001) can be followed below.

One experiment concerns the target T1, PIT2 (Pip-p65)/PPIR (Streptomyces coelicolor, UniProt Q9ADN3).
T1 construct: pMF206 with pMF172 (PPIR-SEAP) in CHO-K1
T1 sequence (Q9ADN3 1-252): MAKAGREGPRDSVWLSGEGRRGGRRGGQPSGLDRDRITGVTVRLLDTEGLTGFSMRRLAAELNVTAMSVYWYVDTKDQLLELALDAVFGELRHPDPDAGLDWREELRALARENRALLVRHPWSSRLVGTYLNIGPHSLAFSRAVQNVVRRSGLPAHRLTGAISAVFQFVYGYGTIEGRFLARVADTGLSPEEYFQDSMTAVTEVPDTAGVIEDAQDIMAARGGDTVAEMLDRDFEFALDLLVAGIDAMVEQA
Briefly: SEAP reporter assay, CHO-K1 cotransfected with pMF206 (PIT2; Pip-p65) and pMF172 (PPIR-SEAP). The class given is cell-based. The conditions noted are these: +PI (2 μg/ml), 48 hr post transfection. The text has this: PIT2, the fusion protein of Pip and the p65 transactivation domain of the human NF-κB transcription activator was cloned in a three step procedure: (i) The p65 domain of the human NF-κB transcription activator was amplified from pSG424-p65 (kindly provided by H. Hauser, GBF, Braunschweig, Germany) with oligos OMF97:
Chinese hamster ovary cells (CHO-K1, ATCC: CCL 61), Baby hamster kidney cells (BHK-21, ATCC: CRL-8544), and HeLa cells (ATCC: CRL-7923) as well as stable cell lines CHO-PIT1, CHO-PIT2, CHO-TWIN195, CHO-TWIN1108 and CHO-PIT1-SEAP were cultured as described before (Fussenegger et al., 1998, Nat. Biotechnol. 16,468-472) in the presence of appropriate antibiotics: G418 400 μg/ml; zeocin 100 μg/ml. Optimized CaPO4 protocols were used for high efficiency transient transfection of all cell lines (id). Transient transfected cells were routinely analyzed after 48 h for GFP or SEAP expression using fluorescence microscopy and p-nitrophenolphosphate-based light absorbance timecourse, respectively, as described before (Fussenegger et al., 1998, Nat. Biotechnol. 16, 468-472; Berger et al., 1988, Gene 66, 1-10 b). […]
In addition, pMF206 (PIT2; Pip-p65) was cotransfected with pMF172 (PPIR -SEAP) and the SEAP readout in the absence and presence of PI (2 μg/ml) was directly compared to CHO-K1 cells cotransfected with pMF156 (PIT; Pip-VP16) and pMF172 (PPIR -SEAP). […]
A general note: In a reporter assay the amount or activity of a reporter protein is the signal.

The next experiment has as its target T2, PIT/PPIR system (Streptomyces coelicolor, UniProt Q9ADN3).
T2 construct: pMF156/pTWIN in CHO cells, PPIR-SEAP or GFP reporter
T2 sequence (Q9ADN3 1-252): T1 sequence (Q9ADN3 1-252)
Briefly: Dose-response of PI-dependent SEAP expression in CHO-PIT1-SEAP. It is filed as cell-based. The following applies: 48 h. As to the method: FIG. 2: Dose-response curve for PI-dependent gene expression. The cell line CHO-PIT1-SEAP was grown for 48 h at different PI concentrations (ng/ml). The relative SEAP production is shown over 5 orders of magnitude of PI concentration.
Chinese hamster ovary cells (CHO-K1, ATCC: CCL 61), Baby hamster kidney cells (BHK-21, ATCC: CRL-8544), and HeLa cells (ATCC: CRL-7923) as well as stable cell lines CHO-PIT1, CHO-PIT2, CHO-TWIN195, CHO-TWIN1108 and CHO-PIT1-SEAP were cultured as described before (Fussenegger et al., 1998, Nat. Biotechnol. 16,468-472) in the presence of appropriate antibiotics: G418 400 μg/ml; zeocin 100 μg/ml. Optimized CaPO4 protocols were used for high efficiency transient transfection of all cell lines (id). Transient transfected cells were routinely analyzed after 48 h for GFP or SEAP expression using fluorescence microscopy and p-nitrophenolphosphate-based light absorbance timecourse, respectively, as described before (Fussenegger et al., 1998, Nat. Biotechnol. 16, 468-472; Berger et al., 1988, Gene 66, 1-10 b). For construction of stable CHO-PIT and CHO-TWIN cell lines, CHO-K1 was cotransfected either with pMF156 or pTWIN1 and pSV2neo carrying the G418 resistance gene. CHO-PIT1-SEAP was constructed by cotransfection of pMF172 and pZeoSV2 (Invitrogen). For assessment of dose-response characteristics of PPIR -regulated gene expression, CHO-PIT1-SEAP were cultured at cell densities of 150,000/ml for 48 at various PI concentrations. The mixed populations were cloned using FACS-mediated single-cell-sorting (FACStar^Plus; Beckton Dickinson). Gel retardation assay were performed as described (Salah-Bey et al., 1995, supra) using Pip purified from an overproducing strain of E. coli. Pip (0.02 pmol) was titrated with a range of antibiotic concentrations in a reaction volume of 20 μl. […]
The levels of PPIR -regulated gene expression could be controlled by varying the concentrations of PI used for induction. This was assessed using a stable CHO cell line (CHO-PIT1-SEAP) which expresses PPIR -SEAP (pMF172) and contains also a constitutive PIT expression vector (pMF156). […]

In the case of pristinamycin I [PI], the “SEAP readout (slope of the p-nitrophenolphosphate-based light absorbance time courses)” value at PIT2 (Pip-p65)/PPIR amounted to 0.31 ± 0.003. At PIT/PPIR system, the “PI concentration at which PIT/PPIR is fully induced” value is < 10 ng/mL, the “PI concentration at which PIT/PPIR is repressed (lowest SEAP expression)” value is > 500 ng/mL and the “PI concentration window in which gene expression can be adjusted” value lay within 10 to 500 ng/mL.
